Results reported in patent publication US20190270733A1, “Quinoline and Isoquinoline Based HDAC Inhibitors and Methods of Use Thereof” (Reaction Biology Corp., priority 2018, published 2019).

Columns and labels:
Human HDAC1 = target: T1, Human HDAC1 (Homo sapiens, UniProt Q13547); assay: Biochemical HDAC assay, HDAC1; conditions: incubation time 120 min
T1 construct: full-length with a C-terminal His-tag and a C-terminal FLAG-tag; His-tag (C); FLAG-tag (C); made in house
Experimental: Human HDAC1 (GenBank Accession No. NM_004964), full-length with a C-terminal His-tag and a C-terminal FLAG-tag, MW=56 kDa, was expressed in a baculovirus expression system.
(§1) • I. Compound handling: Testing compounds were dissolved in 100% DMSO to a specific concentration. The serial dilution was conducted by epMotion 5070 in DMSO. • II. HDAC reaction buffer: 50 mM Tris-HCl, pH8.0, 137 mM NaCl, 2.7 mM KCl, and 1 mM MgCl2, Added fresh: 1 mg/ml BSA, 1% DMSO. • III. Substrate: Fluorogenic HDAC General Substrate for HDAC1, 2, 3, 6, 10, 11 ans Sirt1, 2 and 3: Arg-His-Lys-Lys(Ac); HDAC8 only substrate: Arg-His-Lys(Ac)-Lys(Ac); Class2A Substrate (HDAC4, 5, 7 and 9): Acetyl-Lys(trifluoroacetyl)-AMC; Sirt5 substrate: Ac-Lys(succinyl)-AMC. • IV. General Reaction Procedure: (Standard IC50 determination) • a. Delivered 2× enzyme in wells of reaction plate except No Enzyme (No En) control wells. Add buffer in No En wells. • b. Delivered compounds in 100% DMSO into the enzyme mixture by Acoustic technology (Echo550; nanoliter range). Spin down and pre-incubation. • c. Delivered 2× Substrate Mixture (Fluorogenic HDAC Substrate and co-factor (500 μM of Nicotinamide adenine dinucleotide (NAD^+) in all Sirt assay) in all reaction wells to initiate the reaction. Spin and shake. • d. Incubated for 1-2 hr. at 30° C. with seal. • e. Added Developer with Trichostatin A (or TMP269 or NAD^+) to stop the reaction and to generate fluorescent color. • f. Fluorescence was read (excitatory, 360; emission, 460) using the EnVision Multilabel Plate Reader (Perkin Elmer) • g. Endpoint reading was taken for analysis after the development reaches plateau. • V. Data Analysis: The percentages of enzyme activity (relative to DMSO controls) and IC50 values were calculated using the GraphPad Prism 4 program based on a sigmoidal dose-response equation.
(§2) Compounds with indicated doses was tested in the biochemical assays of HDAC1, HDAC2, HDAC3, HDAC4, HDAC5, HDAC6, HDAC7, HDAC8, HDAC9, HDAC10, or HDAC11 enzyme. The incubation time in HDAC1/2 assays are 120 min, and that for other HDACs are 10 min. The curve fit and IC50 values were calculated using the GraphPad Prism 4 program based on a sigmoidal dose-response equation.

Human HDAC2 = target: T2, Human HDAC2 (Homo sapiens, UniProt Q92769); assay: Biochemical HDAC assay, HDAC2; conditions: incubation time 120 min
T2 construct: full-length with a C-terminal His-tag; His-tag (C); made in house
Experimental: Human HDAC2 (GenBank Accession No. NM_001527), full-length with a C-terminal His-tag, MW=56 kDa, was expressed in a baculovirus expression system.
as §1, §2

[1] = target: T3, Complex of human HDAC3 and human NCOR2 (Homo sapiens, UniProt O15379); assay: Biochemical HDAC assay, HDAC3; conditions: incubation time 10 min
T3 construct: full-length with a C-terminal His tag; His tag (C); made in house
Experimental: Complex of human HDAC3 (GenBank Accession No. NM_003883), full-length with a C-terminal His tag, MW=49.7 kDa, and human NCOR2 (amino acid 395-489) (GenBank Accession No. NM_006312), N-terminal GST tag, MW=37.6 kDa, was co-expressed in a baculovirus expression system.
as §1, §2

Recombinant human HDAC6 = target: T4, Recombinant human HDAC6 (Homo sapiens, UniProt Q9UBN7); assay: Biochemical HDAC assay, HDAC6; conditions: incubation time 10 min
T4 construct: full-length, MW=180 kDa; GST tag (N); made in house; host or cells: Sf9 insect cells (baculovirus)
T4 sequence (Q9UBN7 1-1215): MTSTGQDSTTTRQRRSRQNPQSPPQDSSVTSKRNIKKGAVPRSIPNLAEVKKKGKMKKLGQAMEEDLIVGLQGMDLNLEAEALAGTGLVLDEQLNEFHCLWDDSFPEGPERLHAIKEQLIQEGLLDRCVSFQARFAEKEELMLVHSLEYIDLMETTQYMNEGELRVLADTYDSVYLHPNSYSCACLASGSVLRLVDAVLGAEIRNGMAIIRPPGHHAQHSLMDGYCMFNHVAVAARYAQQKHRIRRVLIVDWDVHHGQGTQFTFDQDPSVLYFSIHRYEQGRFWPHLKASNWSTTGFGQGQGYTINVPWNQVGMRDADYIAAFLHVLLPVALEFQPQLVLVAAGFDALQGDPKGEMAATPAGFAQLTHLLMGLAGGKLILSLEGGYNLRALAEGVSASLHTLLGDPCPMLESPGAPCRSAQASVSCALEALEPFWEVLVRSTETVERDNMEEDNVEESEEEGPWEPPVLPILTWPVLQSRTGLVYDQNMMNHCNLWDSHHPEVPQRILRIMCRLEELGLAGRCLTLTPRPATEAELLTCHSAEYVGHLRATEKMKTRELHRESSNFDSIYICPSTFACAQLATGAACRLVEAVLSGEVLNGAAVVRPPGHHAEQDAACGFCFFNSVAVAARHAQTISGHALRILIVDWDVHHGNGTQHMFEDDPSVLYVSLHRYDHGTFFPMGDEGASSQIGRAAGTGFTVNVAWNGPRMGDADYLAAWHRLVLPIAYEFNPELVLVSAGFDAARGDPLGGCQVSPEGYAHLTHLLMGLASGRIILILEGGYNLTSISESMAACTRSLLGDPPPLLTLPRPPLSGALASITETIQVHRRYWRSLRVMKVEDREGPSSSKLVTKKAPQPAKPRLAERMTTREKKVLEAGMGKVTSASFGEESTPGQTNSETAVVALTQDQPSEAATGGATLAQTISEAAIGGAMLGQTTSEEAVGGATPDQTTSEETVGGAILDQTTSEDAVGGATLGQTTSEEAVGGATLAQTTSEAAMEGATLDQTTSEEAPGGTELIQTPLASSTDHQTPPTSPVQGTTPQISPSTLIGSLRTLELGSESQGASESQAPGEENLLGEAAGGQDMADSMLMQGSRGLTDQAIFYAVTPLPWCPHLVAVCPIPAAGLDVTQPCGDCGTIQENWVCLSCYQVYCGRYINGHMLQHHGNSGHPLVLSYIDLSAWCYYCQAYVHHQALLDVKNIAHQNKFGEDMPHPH
Experimental: Recombinant human HDAC6 (GenBank Accession No. BC069243), full-length, MW=180 kDa, was expressed by baculovirus in Sf9 insect cells using an N-terminal GST tag.
as §1, §2

Human HDAC8 = target: T5, Human HDAC8 (Homo sapiens, UniProt Q9BY41); assay: Biochemical HDAC assay, HDAC8; conditions: incubation time 10 min
T5 construct: full-length with a C-terminal His tag; His tag (C); made in house
T5 sequence (Q9BY41 1-377): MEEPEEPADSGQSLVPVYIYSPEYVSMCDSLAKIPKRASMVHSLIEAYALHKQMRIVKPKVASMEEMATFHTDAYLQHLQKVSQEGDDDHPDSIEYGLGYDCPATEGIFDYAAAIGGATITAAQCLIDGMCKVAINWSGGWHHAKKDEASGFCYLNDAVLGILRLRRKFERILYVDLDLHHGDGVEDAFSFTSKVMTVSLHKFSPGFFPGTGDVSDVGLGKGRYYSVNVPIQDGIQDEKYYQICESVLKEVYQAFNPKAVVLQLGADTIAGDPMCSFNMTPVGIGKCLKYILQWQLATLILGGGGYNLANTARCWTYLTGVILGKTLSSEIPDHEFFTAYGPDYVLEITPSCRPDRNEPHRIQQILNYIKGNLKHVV
Experimental: Human HDAC8 (GenBank Accession No. NM_018486), full-length with a C-terminal His tag, MW=46.4 kDa, was expressed in a baculovirus expression system.
as §1, §2

T3 sequence (O15379 whole entry): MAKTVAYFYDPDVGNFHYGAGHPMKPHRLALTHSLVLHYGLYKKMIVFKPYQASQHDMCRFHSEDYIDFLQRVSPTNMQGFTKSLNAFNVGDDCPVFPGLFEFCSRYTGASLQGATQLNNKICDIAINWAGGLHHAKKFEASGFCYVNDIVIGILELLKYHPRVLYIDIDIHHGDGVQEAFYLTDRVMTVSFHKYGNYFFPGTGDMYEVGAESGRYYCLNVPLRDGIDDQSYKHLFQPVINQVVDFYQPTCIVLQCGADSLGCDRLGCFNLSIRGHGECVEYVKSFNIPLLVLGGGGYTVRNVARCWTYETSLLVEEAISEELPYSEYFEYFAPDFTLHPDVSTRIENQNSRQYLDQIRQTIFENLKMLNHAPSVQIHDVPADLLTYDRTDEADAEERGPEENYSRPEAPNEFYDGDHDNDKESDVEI
T3 sequence (Q9Y618 395-489 partner limits assumed): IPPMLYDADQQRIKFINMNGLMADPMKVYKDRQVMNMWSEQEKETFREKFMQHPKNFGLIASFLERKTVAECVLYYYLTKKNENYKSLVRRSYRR
T2 sequence (Q92769 whole entry): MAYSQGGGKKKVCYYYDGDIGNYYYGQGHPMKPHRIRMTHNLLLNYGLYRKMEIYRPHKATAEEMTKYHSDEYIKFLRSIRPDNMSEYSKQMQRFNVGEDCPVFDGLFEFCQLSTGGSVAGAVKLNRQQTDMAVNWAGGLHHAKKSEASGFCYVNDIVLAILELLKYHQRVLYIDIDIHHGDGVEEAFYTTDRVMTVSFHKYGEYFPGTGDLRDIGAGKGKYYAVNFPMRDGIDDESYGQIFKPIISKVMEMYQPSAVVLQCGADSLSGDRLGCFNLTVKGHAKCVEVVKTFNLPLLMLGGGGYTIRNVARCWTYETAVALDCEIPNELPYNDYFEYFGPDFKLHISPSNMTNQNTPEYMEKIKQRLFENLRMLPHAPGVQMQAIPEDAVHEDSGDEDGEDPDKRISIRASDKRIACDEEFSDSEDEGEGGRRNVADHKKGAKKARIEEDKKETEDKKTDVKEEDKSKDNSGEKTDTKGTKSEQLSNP
T1 sequence (Q13547 whole entry): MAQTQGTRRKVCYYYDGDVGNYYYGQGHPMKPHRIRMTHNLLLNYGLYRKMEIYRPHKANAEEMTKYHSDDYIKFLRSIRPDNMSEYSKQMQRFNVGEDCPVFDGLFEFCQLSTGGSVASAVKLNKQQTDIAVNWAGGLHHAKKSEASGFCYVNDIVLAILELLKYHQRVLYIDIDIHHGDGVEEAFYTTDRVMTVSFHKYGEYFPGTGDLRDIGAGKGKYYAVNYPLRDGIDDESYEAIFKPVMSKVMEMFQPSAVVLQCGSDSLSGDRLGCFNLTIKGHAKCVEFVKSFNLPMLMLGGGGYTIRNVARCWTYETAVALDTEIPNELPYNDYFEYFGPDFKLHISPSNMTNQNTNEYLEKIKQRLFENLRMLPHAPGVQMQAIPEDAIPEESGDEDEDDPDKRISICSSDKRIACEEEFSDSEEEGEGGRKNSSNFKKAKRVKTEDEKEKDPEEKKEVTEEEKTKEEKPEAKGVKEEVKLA

Row | IC50 (Human HDAC1) | IC50 (Human HDAC2) | IC50 [1] | IC50 (Recombinant human HDAC6) | IC50 (Human HDAC8) | SMILES
1 | 0.0018 µM | 0.024 µM | > 10 µM | > 10 µM | > 10 µM | Nc1ccc(-c2cccs2)cc1NC(=O)c1ccc2c(c1)CCNC2=O [Example 1, N-(2-amino-5-(thiophen-2-yl)phenyl)-1-oxo-1,2,3,4-tetrahydroisoquinoline-6-carboxamide]
2 | 0.0019 µM | 0.023 µM | > 10 µM | > 10 µM | > 10 µM | Nc1ccc(-c2cccs2)cc1NC(=O)c1ccc2c(c1)CCN(CC1CCOCC1)C2=O [Example 2, N-(2-amino-5-(thiophen-2-yl)phenyl)-1-oxo-2-((tetrahydro-2H-pyran-4-yl)methyl)-1,2,3,4-tetrahydroisoquinoline-6-carboxamide]
3 | 0.0026 µM | 0.025 µM | > 10 µM | > 10 µM | > 10 µM | Nc1ccc(-c2cccs2)cc1NC(=O)c1ccc2c(c1)CCN(C(=O)C1CCOCC1)C2 [Example 3, N-(2-amino-5-(thiophen-2-yl)phenyl)-2-(tetrahydro-2H-pyran-4-carbonyl)-1,2,3,4-tetrahydroisoquinoline-6-carboxamide]
4 | 0.003 µM | 0.039 µM | > 10 µM | > 10 µM | > 10 µM | Nc1ccc(-c2cccs2)cc1NC(=O)c1ccc2c(c1)CCN(C(=O)c1cccnc1)C2 [Example 4, N-(2-amino-5-(thiophen-2-yl)phenyl)-2-nicotinoyl-1,2,3,4-tetrahydroisoquinoline-6-carboxamide]
